Data reported in patent publication US20080262228A1, “Metabolites of 5-fluoro-8- quinoline and methods of preparation and uses thereof” (Wyeth, priority 2006, published 2008).
Where “and” joins values, the source holds several entries; their conditions need not be identical. Equal values may be shown once. Where a name gives a salt, the structure may show the parent alone.

Assay: In vivo metabolism and excretion of [14C]COMPOUND I in male beagle dogs, single oral 3 mg/kg dose
Design: species or system dog
Details: for Source: P, plasma, F, feces; for Cumulative Percent Excretion of Radioactivity in Feces (includes cage rinse): mean ± SD (n = 4)
Procedure: Dose preparation, animal dosing, and specimen collection were performed at Wyeth Research, Collegeville, Pa. The vehicle contained 2% (w/v) polysorbate 80, NF and 0.5% (w/v) methylcellulose (4000 cps) in water. [^14C]COMPOUND I trisuccinate salt (50.25 mg) and non-labeled COMPOUND I trisuccinate salt (331.9 mg) were suspended in 72 mL of the vehicle by grinding with a mortar and a pestle. The target [^14C]COMPOUND I concentration was approximately 3 mg/mL as free base and 48 μCi/mL with a target specific activity of 16 μCi/mg. Three pre- and post-dose aliquots (100 μL) were taken for the determination of radiochemical purity, drug and radioactivity concentrations and specific activity (see below).
Four male beagle dogs, weighing from 9.4 to 11.5 kg at the time of dosing, were from an in-house colony. Non-fasted dogs were given a single 3 mg/kg (approximately 48 μCi/kg) dose of [^14C]COMPOUND I at a volume of 1 mL/kg via intragastric gavage. Animals were provided Purina dog chow and water ad libitum, and were housed individually in metabolic cages.
Blood samples were collected from the jugular vein at 1, 4, 8, 24, 48, 72 and 120 hr after dose administration into tubes containing potassium EDTA as the anticoagulant and then placed on ice. Aliquots of 200 μL were removed and plasma was harvested immediately from the remaining blood by centrifugation at 4° C. Urine samples were collected into tubes on dry ice from 0-24 and 24-48 hr, and then at ambient temperature at 24 hr intervals for 7 days post-dose. Fecal samples were collected at 24 hr intervals for 7 days post-dose at room temperature. Cage rinses were collected daily by rinsing each cage with approximately 500 mL of 30% ethanol in water. The dose aliquots and biological specimens were stored at approximately −70° C. until analysis.
Triplicate aliquots of diluted dose (20 μL), dose fractions (10 μL) and plasma (50 μL), urine (200 μL) and cage wash (500 μL) from individual dogs were analyzed for radioactivity content. The samples were assayed in a Tri-Carb Model 3100TR liquid scintillation counter (Perkin Elmer) using 5 mL of Ultima Gold scintillation cocktail.
Fecal samples from individual dogs were weighed and homogenized in water at a volume-to-weight ratio of about 4:1 with a Silverson sealed-unit homogenizer at ambient temperature. Triplicate aliquots of whole blood (50 μL) and fecal homogenates (approximately 0.2 g) were placed into Combusto-cones with Combusto-pads and allowed to dry overnight. Samples were combusted with a model 307 Tri-Carb Sample Oxidizer, equipped with an Oximate-80 Robotic Automatic Sampler (Perkin Elmer). The liberated ^14CO2 was trapped with Carbo-Sorb® E carbon dioxide absorber, mixed with PermaFluor® E+liquid scintillation cocktail, and counted in a Tri-Carb Model 3100 TR/LL liquid scintillation counter.
Plasma samples were pooled by mixing equal volumes from four animals at each time point (1, 4, 8 and 24 hr). Aliquots of 2.0 mL of pooled plasma were mixed with 2.0 mL of acetonitrile, placed on ice for about 10 min, and then centrifuged at 4° C. The supernatant was transferred to a clean tube. The protein pellets were extracted two more times with 2.0 mL of acetonitrile. The supernatants from precipitation and extraction of each sample were pooled, mixed, and evaporated at 22° C. under nitrogen in a TurboVap LV evaporator (Caliper Life Sciences, Hopkinton, Mass.) to about 0.8 mL. The concentrated extract was centrifuged, the supernatant volume measured and the extraction efficiency was determined by analyzing duplicate 10 μL aliquots for radioactivity concentrations. For metabolite profiling, an aliquot of the supernatant (200 μL) was injected onto the HPLC column as described hereinbelow, and fractions were collected at 20 second intervals into 96-well Lumaplates (Perkin Elmer).

[1] = pooled 0-24 hr fecal sample, 3 mg/kg oral
[2] = pooled 24-48 hr fecal sample, 3 mg/kg oral
[3] = 1 hr, 3 mg/kg oral, individual dogs, 3 mg/kg
[4] = 4 hr, 3 mg/kg oral, individual dogs, 3 mg/kg
[5] = 8 hr, 3 mg/kg oral, individual dogs, 3 mg/kg
[6] = 24 hr, 3 mg/kg oral, individual dogs, 3 mg/kg
[7] = 48 hr, 3 mg/kg oral, individual dogs, 3 mg/kg
[8] = 72 hr, 3 mg/kg oral, individual dogs, 3 mg/kg
[9] = 120 hr, 3 mg/kg oral, individual dogs, 3 mg/kg
[10] = 120 hr, 3 mg/kg oral, mean ± SD

## COc1cc(N2CCN(C3CCN(c4ccc(F)c5cccnc45)CC3)CC2)c2ncccc2c1 [COMPOUND I, 5-Fluoro-8-{4-[4-(6-methoxyquinolin-8-yl)piperazin-1-yl]piperidin-1-yl}quinoline]
3 mg/kg oral
  Source: P, F
[1]
  percent of total fecal radioactivity: 1.2%
[2]
  percent of total fecal radioactivity: 6.7%
Pooled plasma, over 24 hr post-dose, 3 mg/kg oral
  percent of total plasma radioactivity: 71-78%

## Oc1cc(N2CCN(C3CCN(c4ccc(F)c5cccnc45)CC3)CC2)c2ncccc2c1 [Metabolite M21, 8-{4-[1-(5-fluoroquinolin-8-yl)piperidin-4-yl]piperazin-1-yl}quinolin-6-ol trihydrochloride]
3 mg/kg oral
  Source: P, F
[1]
  percent of total fecal radioactivity: 79.3%
[2]
  percent of total fecal radioactivity: 60.9%

## COc1cc(N2CCN(C3CCN(c4ccc(F)c5cccnc45)CC3)CC2)c2ncccc2c1 [[^14C]COMPOUND I, [piperazine-^14C(U)]-5-fluoro-8-(4-(4-(6-methoxyquinolin-8-yl)piperazin-1-yl)piperidin-1-yl)quinoline trisuccinate]
0-24 hr, 3 mg/kg oral, individual dogs, 3 mg/kg
  Recovery of Radioactivity in Cage Rinse (Percent of Dose): 0.18% and 1.64% and 1.74% and 0.78%
0-24 hr, 3 mg/kg oral, mean ± SD
  Recovery of Radioactivity in Cage Rinse (Percent of Dose): 1.09 ± 0.74%
0-48 hr, 3 mg/kg oral, individual dogs, 3 mg/kg
  Recovery of Radioactivity in Cage Rinse (Cumulative Percent of Dose): 0.46% and 2.57% and 2.20% and 1.75%
0-48 hr, 3 mg/kg oral, mean ± SD
  Recovery of Radioactivity in Cage Rinse (Cumulative Percent of Dose): 1.75 ± 0.92%
0-48 hr, 3 mg/kg oral, 3 mg/kg
  Cumulative Percent Excretion of Radioactivity in Feces (includes cage rinse): 61.2% and 61.2 ± 14.1%
0-72 hr, 3 mg/kg oral, individual dogs, 3 mg/kg
  Recovery of Radioactivity in Cage Rinse (Cumulative Percent of Dose): 0.65% and 3.00% and 2.57% and 1.97%
0-72 hr, 3 mg/kg oral, mean ± SD
  Recovery of Radioactivity in Cage Rinse (Cumulative Percent of Dose): 2.05 ± 1.02%
0-96 hr, 3 mg/kg oral, individual dogs, 3 mg/kg
  Recovery of Radioactivity in Cage Rinse (Cumulative Percent of Dose): 0.72% and 3.27% and 2.66% and 2.05%
0-96 hr, 3 mg/kg oral, mean ± SD
  Recovery of Radioactivity in Cage Rinse (Cumulative Percent of Dose): 2.18 ± 1.09%
0-120 hr, 3 mg/kg oral, individual dogs, 3 mg/kg
  Recovery of Radioactivity in Cage Rinse (Cumulative Percent of Dose): 0.75% and 3.39% and 2.73% and 2.12%
0-120 hr, 3 mg/kg oral, mean ± SD
  Recovery of Radioactivity in Cage Rinse (Cumulative Percent of Dose): 2.25 ± 1.13%
0-144 hr, 3 mg/kg oral, individual dogs, 3 mg/kg
  Recovery of Radioactivity in Cage Rinse (Cumulative Percent of Dose): 0.79% and 3.49% and 2.77% and 2.17%
0-144 hr, 3 mg/kg oral, mean ± SD
  Recovery of Radioactivity in Cage Rinse (Cumulative Percent of Dose): 2.31 ± 1.15%
0-168 hr, 3 mg/kg oral, individual dogs, 3 mg/kg
  Recovery of Radioactivity in Cage Rinse (Cumulative Percent of Dose): 0.84% and 3.58% and 2.83% and 2.20%
0-168 hr, 3 mg/kg oral, mean ± SD
  Recovery of Radioactivity in Cage Rinse (Cumulative Percent of Dose): 2.36 ± 1.16%
0-168 hr, 3 mg/kg oral, 3 mg/kg
  Cumulative Percent Excretion of Radioactivity in Feces (includes cage rinse): 72.8% and 72.8 ± 3.28%
3 mg/kg oral
  dose excreted in urine: less than 7%
24-48 hr, 3 mg/kg oral, individual dogs, 3 mg/kg
  Recovery of Radioactivity in Cage Rinse (Percent of Dose): 0.28% and 0.93% and 0.46% and 0.97%
24-48 hr, 3 mg/kg oral, mean ± SD
  Recovery of Radioactivity in Cage Rinse (Percent of Dose): 0.66 ± 0.34%
48-72 hr, 3 mg/kg oral, individual dogs, 3 mg/kg
  Recovery of Radioactivity in Cage Rinse (Percent of Dose): 0.19% and 0.43% and 0.37% and 0.22%
48-72 hr, 3 mg/kg oral, mean ± SD
  Recovery of Radioactivity in Cage Rinse (Percent of Dose): 0.30 ± 0.12%
72-96 hr, 3 mg/kg oral, individual dogs, 3 mg/kg
  Recovery of Radioactivity in Cage Rinse (Percent of Dose): 0.07% and 0.27% and 0.09% and 0.08%
72-96 hr, 3 mg/kg oral, mean ± SD
  Recovery of Radioactivity in Cage Rinse (Percent of Dose): 0.13 ± 0.10%
96-120 hr, 3 mg/kg oral, individual dogs, 3 mg/kg
  Recovery of Radioactivity in Cage Rinse (Percent of Dose): 0.03% and 0.12% and 0.07% (2×)
96-120 hr, 3 mg/kg oral, mean ± SD
  Recovery of Radioactivity in Cage Rinse (Percent of Dose): 0.07 ± 0.04%
120-144 hr, 3 mg/kg oral, individual dogs, 3 mg/kg
  Recovery of Radioactivity in Cage Rinse (Percent of Dose): 0.04% (2×) and 0.10% and 0.05%
120-144 hr, 3 mg/kg oral, mean ± SD
  Recovery of Radioactivity in Cage Rinse (Percent of Dose): 0.06 ± 0.03%
144-168 hr, 3 mg/kg oral, individual dogs, 3 mg/kg
  Recovery of Radioactivity in Cage Rinse (Percent of Dose): 0.05% and 0.09% and 0.06% and 0.03%
144-168 hr, 3 mg/kg oral, mean ± SD
  Recovery of Radioactivity in Cage Rinse (Percent of Dose): 0.06 ± 0.03%
[3]
  Concentration of Total Radioactivity in Plasma: 336 ng equivalents/mL and 426 ng equivalents/mL and 496 ng equivalents/mL and 437 ng equivalents/mL
  Concentration of Total Radioactivity in Whole Blood: 270 ng equivalents/mL and 284 ng equivalents/mL and 404 ng equivalents/mL and 375 ng equivalents/mL
1 hr, 3 mg/kg oral, mean ± SD
  Concentration of Total Radioactivity in Whole Blood: 333 ± 66.3 ng equivalents/mL
1 hr, 3 mg/kg oral, mean ± SD, 3 mg/kg
  Concentration of Total Radioactivity in Plasma: 424±66.1 ng equivalents/mL
[4]
  Concentration of Total Radioactivity in Plasma: 166 ng equivalents/mL and 228 ng equivalents/mL and 326 ng equivalents/mL and 181 ng equivalents/mL
  Concentration of Total Radioactivity in Whole Blood: 138 ng equivalents/mL and 201 ng equivalents/mL and 191 ng equivalents/mL and 281 ng equivalents/mL
4 hr, 3 mg/kg oral, mean ± SD
  Concentration of Total Radioactivity in Plasma: 225 ± 72.2 ng equivalents/mL
  Concentration of Total Radioactivity in Whole Blood: 203 ± 59.0 ng equivalents/mL
[5]
  Concentration of Total Radioactivity in Plasma: 102 ng equivalents/mL and 135 ng equivalents/mL and 171 ng equivalents/mL and 121 ng equivalents/mL
  Concentration of Total Radioactivity in Whole Blood: 93.5 ng equivalents/mL and 131 ng equivalents/mL and 160 ng equivalents/mL and 126 ng equivalents/mL
8 hr, 3 mg/kg oral, mean ± SD
  Concentration of Total Radioactivity in Plasma: 132 ± 29.2 ng equivalents/mL
  Concentration of Total Radioactivity in Whole Blood: 128 ± 27.2 ng equivalents/mL
[6]
  Concentration of Total Radioactivity in Plasma: 49.1 ng equivalents/mL and 69.3 ng equivalents/mL and 155 ng equivalents/mL and 89.7 ng equivalents/mL
  Concentration of Total Radioactivity in Whole Blood: 41.2 ng equivalents/mL and 63.3 ng equivalents/mL and 98.5 ng equivalents/mL and 82.9 ng equivalents/mL
24 hr, 3 mg/kg oral, mean ± SD
  Concentration of Total Radioactivity in Whole Blood: 71.5 ± 24.8 ng equivalents/mL
24 hr, 3 mg/kg oral, mean ± SD, 3 mg/kg
  Concentration of Total Radioactivity in Plasma: 90.8±45.9 ng equivalents/mL
[7]
  Concentration of Total Radioactivity in Plasma: 25.5 ng equivalents/mL and 28.2 ng equivalents/mL and 58.5 ng equivalents/mL and 40.7 ng equivalents/mL
  Concentration of Total Radioactivity in Whole Blood: 22.2 ng equivalents/mL and 30.2 ng equivalents/mL and 40.8 ng equivalents/mL and 42.2 ng equivalents/mL
48 hr, 3 mg/kg oral, mean ± SD
  Concentration of Total Radioactivity in Plasma: 38.2 ± 15.1 ng equivalents/mL
  Concentration of Total Radioactivity in Whole Blood: 33.9 ± 9.44 ng equivalents/mL
[8]
  Concentration of Total Radioactivity in Plasma: 17.6 ng equivalents/mL and 21.4 ng equivalents/mL and 73.6 ng equivalents/mL and 39.0 ng equivalents/mL
  Concentration of Total Radioactivity in Whole Blood: 16.8 ng equivalents/mL and 22.6 ng equivalents/mL and 25.2 ng equivalents/mL and 31.6 ng equivalents/mL
72 hr, 3 mg/kg oral, mean ± SD
  Concentration of Total Radioactivity in Plasma: 37.9 ± 25.6 ng equivalents/mL
  Concentration of Total Radioactivity in Whole Blood: 24.1 ± 6.14 ng equivalents/mL
[9]
  Concentration of Total Radioactivity in Plasma: 45.1 ng equivalents/mL (2×) and 46.0 ng equivalents/mL and 46.7 ng equivalents/mL
  Concentration of Total Radioactivity in Whole Blood: 16.6 ng equivalents/mL and 18.4 ng equivalents/mL and 18.0 ng equivalents/mL and 24.0 ng equivalents/mL
[10]
  Concentration of Total Radioactivity in Plasma: 45.7 ± 0.78 ng equivalents/mL
  Concentration of Total Radioactivity in Whole Blood: 19.3 ± 3.26 ng equivalents/mL
Estimated from radioactivity in urine collected for several additional weeks
  administered dose excreted after the completion of the study: about 5%
